The NIST ThermoML archive (doi:10.1021/je0302001)

Test: mn = molality of the nth substance listed, in mol/kg
Conditions: for surface tension liquid-gas: Ring tensiometer; for viscosity / speed of sound: 101.3 kPa, Liquid; for viscosity: Capillary tube (Ostwald / Ubbelohde) method

O=[N+]([O-])[O-].O=[N+]([O-])[O-].[Zn+2] [nitric acid, zinc salt] + O
Conditions	speed of sound [m/s]	surface tension liquid-gas [mN/m]	viscosity [mPa·s]
273.15 K, m1 = 0.0875	1413	–	–
273.15 K, m1 = 0.1329	1413.5	–	1.863
273.15 K, m1 = 0.2263	–	75.65	–
273.15 K, m1 = 0.2466	1422.7	–	1.905
273.15 K, m1 = 0.334	–	75.79	–
273.15 K, m1 = 0.3388	1429.7	–	1.95
273.15 K, m1 = 0.6111	1454.8	–	2.081
273.15 K, m1 = 0.6198	–	76.35	–
273.15 K, m1 = 0.6405	1457	–	2.103
273.15 K, m1 = 0.8228	–	77.03	–
273.15 K, m1 = 1.113	1500.1	–	2.431
273.15 K, m1 = 1.258	1516.9	–	2.573
273.15 K, m1 = 1.259	–	78.02	–
273.15 K, m1 = 1.549	–	78.63	–
273.15 K, m1 = 1.551	1544.4	–	2.833
273.15 K, m1 = 1.818	–	78.99	–
273.15 K, m1 = 1.906	1578.6	–	3.306
273.15 K, m1 = 2.145	1600.1	–	3.662
273.15 K, m1 = 2.222	–	80.42	–
273.15 K, m1 = 2.29	1612.6	–	3.902
273.15 K, m1 = 2.292	1612.3	–	–
273.15 K, m1 = 2.344	1617.4	–	3.935
273.15 K, m1 = 2.526	–	81.29	–
273.15 K, m1 = 2.721	–	81.96	–
273.15 K, m1 = 2.91	1663.1	–	5.033
273.15 K, m1 = 3.426	–	83.68	–
273.15 K, m1 = 3.472	1707.7	–	6.559
273.15 K, m1 = 4.011	–	85.35	–
273.15 K, m1 = 4.075	1740.8	–	8.684
273.15 K, m1 = 4.231	–	85.77	–
273.15 K, m1 = 4.817	1780.2	–	12.49
273.15 K, m1 = 5.133	–	87.84	–
273.15 K, m1 = 5.224	1794	–	15.05
278.15 K, m1 = 0.0875	1435.8	–	–
278.15 K, m1 = 0.1329	1436.3	–	1.585
278.15 K, m1 = 0.2466	1444.2	–	1.626
278.15 K, m1 = 0.3388	1450.4	–	1.667
278.15 K, m1 = 0.6111	1472.6	–	1.788
278.15 K, m1 = 0.6405	1474.8	–	1.807
278.15 K, m1 = 1.113	1514.5	–	2.096
278.15 K, m1 = 1.258	1530.4	–	2.221
278.15 K, m1 = 1.551	1555	–	2.436
278.15 K, m1 = 1.906	1586.2	–	2.838
278.15 K, m1 = 2.145	1606.1	–	3.15
278.15 K, m1 = 2.29	1618.1	–	3.351
278.15 K, m1 = 2.292	1617.3	–	–
278.15 K, m1 = 2.344	1622.2	–	3.38
278.15 K, m1 = 2.91	1664.7	–	4.293
278.15 K, m1 = 3.472	1703.6	–	5.554
278.15 K, m1 = 4.075	1737.6	–	7.273
278.15 K, m1 = 4.817	1772.3	–	10.32
278.15 K, m1 = 5.224	1786.4	–	12.33
283.15 K, m1 = 0.0875	1456.4	–	–
283.15 K, m1 = 0.1329	1455.8	–	1.368
283.15 K, m1 = 0.2263	–	74.42	–
283.15 K, m1 = 0.2466	1463.2	–	1.406
283.15 K, m1 = 0.334	–	74.63	–
283.15 K, m1 = 0.3388	1468.8	–	1.444
283.15 K, m1 = 0.6111	1487.8	–	1.559
283.15 K, m1 = 0.6198	–	75.26	–
283.15 K, m1 = 0.6405	1491.2	–	1.571
283.15 K, m1 = 0.8228	–	75.94	–
283.15 K, m1 = 1.113	1526.3	–	1.827
283.15 K, m1 = 1.258	1540.8	–	1.936
283.15 K, m1 = 1.259	–	77.01	–
283.15 K, m1 = 1.549	–	77.42	–
283.15 K, m1 = 1.551	1564	–	2.13
283.15 K, m1 = 1.818	–	78.05	–
283.15 K, m1 = 1.906	1592.7	–	2.478
283.15 K, m1 = 2.145	1611.1	–	2.737
283.15 K, m1 = 2.222	–	79.29	–
283.15 K, m1 = 2.29	1618.7	–	2.901
283.15 K, m1 = 2.292	1619.7	–	–
283.15 K, m1 = 2.344	1626.1	–	2.932
283.15 K, m1 = 2.526	–	80.48	–
283.15 K, m1 = 2.721	–	80.75	–
283.15 K, m1 = 2.91	1665.6	–	3.705
283.15 K, m1 = 3.426	–	82.59	–
283.15 K, m1 = 3.472	1701.3	–	4.774
283.15 K, m1 = 4.011	–	84.21	–
283.15 K, m1 = 4.075	1733.5	–	6.175
283.15 K, m1 = 4.231	–	84.55	–
283.15 K, m1 = 4.817	1765.9	–	8.641
283.15 K, m1 = 5.133	–	86.75	–
283.15 K, m1 = 5.224	1779.8	–	10.24
283.15 K, m1 = 5.797	1795	–	–
283.15 K, m1 = 6.245	–	88.17	–
288.15 K, m1 = 0.0875	1473.6	–	–
288.15 K, m1 = 0.1329	1473.1	–	1.195
288.15 K, m1 = 0.2466	1479.5	–	1.229
288.15 K, m1 = 0.3388	1484.8	–	1.265
288.15 K, m1 = 0.6111	1503	–	1.368
288.15 K, m1 = 0.6405	1505.2	–	1.38
288.15 K, m1 = 1.113	1537.3	–	1.609
288.15 K, m1 = 1.258	1550.2	–	1.705
288.15 K, m1 = 1.551	1571.7	–	1.875
288.15 K, m1 = 1.906	1598.9	–	2.178
288.15 K, m1 = 2.145	1615	–	2.403
288.15 K, m1 = 2.29	1625	–	2.545
288.15 K, m1 = 2.292	1623.1	–	–
288.15 K, m1 = 2.344	1629.2	–	2.57
288.15 K, m1 = 2.91	1666	–	3.231
288.15 K, m1 = 3.472	1699.5	–	4.124
288.15 K, m1 = 4.075	1729.1	–	5.31
288.15 K, m1 = 4.817	1761.2	–	7.338
288.15 K, m1 = 5.224	1769.8	–	8.634
288.15 K, m1 = 5.797	1786.4	–	–
288.15 K, m1 = 6.34	1797.7	–	–
293.15 K, m1 = 0.2263	–	73.17	–
293.15 K, m1 = 0.334	–	73.3	–
293.15 K, m1 = 0.6198	–	74.02	–
293.15 K, m1 = 0.8228	–	74.83	–
293.15 K, m1 = 1.259	–	75.92	–
293.15 K, m1 = 1.549	–	76.32	–
293.15 K, m1 = 1.818	–	76.87	–
293.15 K, m1 = 2.222	–	78.11	–
293.15 K, m1 = 2.526	–	79	–
293.15 K, m1 = 2.721	–	79.59	–
293.15 K, m1 = 3.426	–	81.48	–
293.15 K, m1 = 4.011	–	83.01	–
293.15 K, m1 = 4.231	–	83.39	–
